Experimental data taken from PubChem BioAssay AID330 (DTP/NCI, 2004).
Several values for one entry are separate records, joined by “and”; a condition that tells them apart may be missing. Identical values can stand only once. Inconclusive results and toxic doses are left out. Peptide text beside a SMILES is read from it.

Tested on: P388 leukemia ip, CD2F1 mice, survival T/C
Experiment: NCI In Vivo Anticancer Drug Screen. Data for tumor model P388 Leukemia (intraperitoneal) in CD2F1 (CDF1) mice
Details: endpoint: median survival time, higher = longer survival
Procedure, shortened: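 Mice carrying the transplanted tumor received test compound or vehicle. Survival was recorded in each group, and the value is the treated-group measurement divided by that of the vehicle-treated control group.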

[1] = dose: 50.0 mg/kg/injection, schedule: Q01DX005 (ip), vehicle: saline with Tween-80
[2] = dose: 100.0 mg/kg/injection, schedule: Q01DX005 (ip), vehicle: saline with Tween-80
[3] = dose: 200.0 mg/kg/injection, schedule: Q01DX005 (ip), vehicle: saline with Tween-80
[4] = dose: 60.0 mg/kg/injection, schedule: Q01DX005 (ip), vehicle: saline with Tween-80
[5] = dose: 120.0 mg/kg/injection, schedule: Q01DX005 (ip), vehicle: saline with Tween-80
[6] = dose: 240.0 mg/kg/injection, schedule: Q01DX005 (ip), vehicle: saline with Tween-80
[7] = dose: 400.0 mg/kg/injection, schedule: Q01DX005 (ip), vehicle: saline with Tween-80
[8] = dose: 12.5 mg/kg/injection, schedule: Q01DX005 (ip), vehicle: Klucel (hydroxypropylcellulose) (HPC)
[9] = dose: 25.0 mg/kg/injection, schedule: Q01DX005 (ip), vehicle: Klucel (hydroxypropylcellulose) (HPC)
[10] = dose: 50.0 mg/kg/injection, schedule: Q01DX005 (ip), vehicle: Klucel (hydroxypropylcellulose) (HPC)
[11] = dose: 6.25 mg/kg/injection, schedule: Q01DX009 (ip), vehicle: saline with Tween-80
[12] = dose: 12.5 mg/kg/injection, schedule: Q01DX009 (ip), vehicle: saline with Tween-80
[13] = dose: 25.0 mg/kg/injection, schedule: Q01DX009 (ip), vehicle: saline with Tween-80
[14] = dose: 50.0 mg/kg/injection, schedule: Q01DX009 (ip), vehicle: saline with Tween-80
[15] = dose: 100.0 mg/kg/injection, schedule: Q01DX009 (ip), vehicle: saline with Tween-80

Structure (SMILES): O=C(/C(=C\c1ccc(F)cc1)S(=O)(=O)c1ccc(Br)cc1)c1ccccc1
- T/C [1]: 100 % of control
- T/C [2]: 97 % of control
- T/C [3]: 95 % of control

Structure (SMILES): CC(O)C(N)C(=O)NC(Cc1ccc(O)cc1)C(=O)NC(CCCCN)C(=O)O (stereo not drawn) (H-Thr-Tyr-Lys-OH; configuration not given here)
- T/C (dose: 50.0 mg/kg/injection, schedule: Q01DX005 (ip), vehicle: saline): 101 % of control
- T/C (dose: 100.0 mg/kg/injection, schedule: Q01DX005 (ip), vehicle: saline): 101 % of control
- T/C (dose: 200.0 mg/kg/injection, schedule: Q01DX005 (ip), vehicle: saline): 106 % of control

Structure (SMILES): Nc1cccc2c1C(=O)c1nc3ccccc3nc1C2=O
- T/C (dose: 100.0 mg/kg/injection, schedule: Q01DX001 (ip), vehicle: Klucel + Tween-80): 98 % of control
- T/C (dose: 200.0 mg/kg/injection, schedule: Q01DX001 (ip), vehicle: Klucel + Tween-80): 94 % of control
- T/C (dose: 400.0 mg/kg/injection, schedule: Q01DX001 (ip), vehicle: Klucel + Tween-80): 94 % of control

Structure (SMILES): Cc1cc(=O)[nH]c(N/N=C/c2ccc(O)cc2)n1
- T/C (dose: 18.75 mg/kg/injection, schedule: Q04DX003 (ip), vehicle: saline sonified): 90 % of control
- T/C (dose: 37.5 mg/kg/injection, schedule: Q04DX003 (ip), vehicle: saline sonified): 86 % of control
- T/C (dose: 75.0 mg/kg/injection, schedule: Q04DX003 (ip), vehicle: saline sonified): 104 % of control

Structure (SMILES): O=C1CCC(c2nc(=S)[nH][nH]2)N1Cc1ccccc1 (configuration not stated)
- T/C [4]: 101 % of control
- T/C [5]: 102 % of control
- T/C [6]: 101 % of control

Structure (SMILES): CCCCCCCCCCCCCC(=O)Oc1ccc[nH]c1=O
- T/C [1]: 91 % of control
- T/C [2]: 90 % of control
- T/C [3]: 90 % of control
- T/C [7]: 98 % of control

Structure (SMILES): CC[C@]1(O)Cc2c(O)c3c(c(O)c2[C@@H](OC2CC(N)C(O)C(C)O2)C1)C(=O)c1c(OC)cccc1C3=O (some centres not stated)
- T/C (dose: 1.2 mg/kg/injection, schedule: Q04DX003 (ip), vehicle: water): 117 % of control
- T/C (dose: 1.56 mg/kg/injection, schedule: Q01DX009 (ip), vehicle: water): 151 % of control and 169 % of control
- T/C (dose: 2.4 mg/kg/injection, schedule: Q04DX003 (ip), vehicle: water): 119 % of control
- T/C (dose: 3.13 mg/kg/injection, schedule: Q01DX009 (ip), vehicle: water): 156 % of control and 163 % of control
- T/C (dose: 6.25 mg/kg/injection, schedule: Q01DX009 (ip), vehicle: water): 95 % of control
- T/C (dose: 37.5 mg/kg/injection, schedule: Q04DX003 (ip), vehicle: water): 103 % of control

Structure (SMILES): O=C(O)C1C=CC2OC2C1C(=O)O (configuration not stated)
- T/C (dose: 100.0 mg/kg/injection, schedule: Q01DX001 (ip), vehicle: Klucel (hydroxypropylcellulose) (HPC)): 87 % of control
- T/C (dose: 200.0 mg/kg/injection, schedule: Q01DX001 (ip), vehicle: Klucel (hydroxypropylcellulose) (HPC)): 92 % of control
- T/C (dose: 400.0 mg/kg/injection, schedule: Q01DX001 (ip), vehicle: Klucel (hydroxypropylcellulose) (HPC)): 93 % of control

Structure (SMILES): CNc1[nH]c(=O)[nH]c(=O)c1[N+](=O)[O-]
- T/C [8]: 100 % of control
- T/C [9]: 105 % of control
- T/C [10]: 105 % of control and 112 % of control

Structure (SMILES): COc1ccc(CC#N)c(OC)c1
- T/C (dose: 12.5 mg/kg/injection, schedule: Q01DX009 (ip), vehicle: other): 102 % of control
- T/C (dose: 25.0 mg/kg/injection, schedule: Q01DX009 (ip), vehicle: other): 102 % of control

Structure (SMILES): Cc1ccc(/C=C/c2ccc3ccccc3c2)cc1
- T/C (dose: 50.0 mg/kg/injection, schedule: Q01DX009 (ip), vehicle: other): 108 % of control
- T/C (dose: 100.0 mg/kg/injection, schedule: Q01DX009 (ip), vehicle: other): 98 % of control
- T/C (dose: 200.0 mg/kg/injection, schedule: Q01DX009 (ip), vehicle: other): 120 % of control

Structure (SMILES): O=C1C(=O)c2ccccc2-c2ccccc21
- T/C [11]: 104 % of control
- T/C [12]: 104 % of control
- T/C [13]: 108 % of control
- T/C [14]: 100 % of control

Structure (SMILES): COc1cc(-c2nc(=S)[nH][nH]2)cc(OC)c1OC
- T/C (dose: 100.0 mg/kg/injection, schedule: Q01DX001 (ip), vehicle: saline with Tween-80): 89 % of control
- T/C (dose: 200.0 mg/kg/injection, schedule: Q01DX001 (ip), vehicle: saline with Tween-80): 89 % of control
- T/C (dose: 400.0 mg/kg/injection, schedule: Q01DX001 (ip), vehicle: saline with Tween-80): 96 % of control

Structure (SMILES): O=C(Nc1nncs1)c1cccs1
- T/C (dose: 50.0 mg/kg/injection, schedule: Q04DX002 (ip), vehicle: saline with Tween-80): 100 % of control
- T/C (dose: 50.0 mg/kg/injection, schedule: Q04DX002 (ip), vehicle: saline): 113 % of control
- T/C [2]: 103 % of control
- T/C (dose: 100.0 mg/kg/injection, schedule: Q04DX002 (ip), vehicle: saline with Tween-80): 104 % of control and 114 % of control
- T/C (dose: 100.0 mg/kg/injection, schedule: Q04DX002 (ip), vehicle: saline): 106 % of control
- T/C [3]: 101 % of control
- T/C (dose: 200.0 mg/kg/injection, schedule: Q04DX002 (ip), vehicle: saline with Tween-80): 114 % of control
- T/C (dose: 200.0 mg/kg/injection, schedule: Q04DX002 (ip), vehicle: saline): 122 % of control
- T/C [7]: 96 % of control
- T/C (dose: 600.0 mg/kg/injection, schedule: Q04DX002 (ip), vehicle: saline with Tween-80): 160 % of control
- T/C (dose: 800.0 mg/kg/injection, schedule: Q01DX005 (ip), vehicle: saline with Tween-80): 104 % of control

Structure (SMILES): COc1nc(N)nc(Cl)n1
- T/C [12]: 105 % of control
- T/C [13]: 107 % of control
- T/C [14]: 101 % of control
- T/C [15]: 98 % of control

Structure (SMILES): CC(=O)OCN(C)C=O
- T/C (dose: 125.0 mg/kg/injection, schedule: Q01DX005 (ip), vehicle: water): 96 % of control
- T/C (dose: 250.0 mg/kg/injection, schedule: Q01DX005 (ip), vehicle: water): 91 % of control
- T/C (dose: 500.0 mg/kg/injection, schedule: Q01DX005 (ip), vehicle: water): 98 % of control

Structure (SMILES): C1CCC(N=C(NC2CCCCC2)N2CCOCC2)CC1
- T/C (dose: 6.25 mg/kg/injection, schedule: Q01DX009 (ip), vehicle: saline): 99 % of control
- T/C (dose: 12.5 mg/kg/injection, schedule: Q01DX009 (ip), vehicle: saline): 99 % of control
- T/C (dose: 25.0 mg/kg/injection, schedule: Q01DX009 (ip), vehicle: saline): 100 % of control
- T/C (dose: 50.0 mg/kg/injection, schedule: Q01DX009 (ip), vehicle: saline): 89 % of control

Structure (SMILES): Cc1cc2oc(=O)cc(C(=O)O)c2c(=O)o1
- T/C (dose: 100.0 mg/kg/injection, schedule: Q04DX003 (ip), vehicle: Klucel (hydroxypropylcellulose) (HPC)): 102 % of control
- T/C (dose: 200.0 mg/kg/injection, schedule: Q04DX003 (ip), vehicle: Klucel (hydroxypropylcellulose) (HPC)): 95 % of control
- T/C (dose: 400.0 mg/kg/injection, schedule: Q04DX003 (ip), vehicle: Klucel (hydroxypropylcellulose) (HPC)): 87 % of control

Structure (SMILES): CCCCCCCC/C=C\CCCCCCCCCCCC(=O)OCCN(CCOC(=O)CCCCCCCCCCC/C=C\CCCCCCCC)C(=O)c1ccccc1
- T/C [14]: 106 % of control
- T/C [15]: 116 % of control
- T/C (dose: 200.0 mg/kg/injection, schedule: Q01DX009 (ip), vehicle: saline with Tween-80): 116 % of control

Structure (SMILES): CCN(Cc1ccccc1)C(=O)Nc1c(Cl)cccc1Cl
- T/C [4]: 92 % of control
- T/C [5]: 95 % of control
- T/C [6]: 86 % of control

Structure (SMILES): Cc1cccc(Cl)c1NC1=NCCN1C(=O)CC(=O)c1ccccc1
- T/C (dose: 3.13 mg/kg/injection, schedule: Q01DX009 (ip), vehicle: Klucel (hydroxypropylcellulose) (HPC)): 107 % of control
- T/C (dose: 6.25 mg/kg/injection, schedule: Q01DX009 (ip), vehicle: Klucel (hydroxypropylcellulose) (HPC)): 105 % of control
- T/C (dose: 12.5 mg/kg/injection, schedule: Q01DX009 (ip), vehicle: Klucel (hydroxypropylcellulose) (HPC)): 99 % of control and 100 % of control

Structure (SMILES): Cc1nc(C#N)c(=N)n(O)c1Cl
- T/C [11]: 99 % of control and 102 % of control and 123 % of control
- T/C [12]: 104 % of control and 106 % of control
- T/C [13]: 110 % of control and 113 % of control

Structure (SMILES): CC1(C)CC2([Si](C)(C)C)C(=O)NC(=O)NC12 (configuration not stated)
- T/C [8]: 105 % of control
- T/C [9]: 99 % of control
- T/C [10]: 99 % of control
- T/C (dose: 100.0 mg/kg/injection, schedule: Q01DX005 (ip), vehicle: Klucel (hydroxypropylcellulose) (HPC)): 97 % of control

Structure (SMILES): CCCCN1CCC(CNc2ccnc3cc(Cl)ccc23)C1 (configuration not stated)
- T/C (dose: 12.5 mg/kg/injection, schedule: Q01DX005 (ip), vehicle: saline with Tween-80): 93 % of control
- T/C (dose: 25.0 mg/kg/injection, schedule: Q01DX005 (ip), vehicle: saline with Tween-80): 90 % of control
- T/C [1]: 109 % of control and 93 % of control
